Key:
[1] = system: breast tumor cell line 13762 tumors; assay: Planar scintigraphic imaging in breast tumor-bearing rats; assay type: in vivo, Fischer 344 rats; conditions: for Tumor %ID (percent of injected dose in the tumor) / tumor-to-muscle (T/M) ratio: i.v. 300 μCi/rat
Procedure: Cells from the breast tumor cell line 13762, suspended in phosphate-buffered solution (10^5 cells/0.1 mL solution per rat), were injected subcutaneously into the right calf muscle of female Fischer 344 rats (n = 9). Planar scintigraphic imaging of ^99mTc-N4-Tyrosine was performed 12–14 days after inoculation when tumors reached approximately 1 cm in diameter. The breast tumor-bearing rats (n = 3/time point) were anesthetized and injected intravenously with ^99mTc-N4-Tyrosine (0.3 mg/rat, 300 μCi/rat), and images were acquired at 30, 120, and 240 minutes after administration of tracers. Planar scintigraphic images were obtained using M-CAM (Siemens Medical Solutions, Hoffman Estates, IL, USA) equipped with a low-energy high-resolution collimator. Computer-outlined regions of interest (ROIs in counts per pixel) between tumor and muscle tissue were used to calculate tumor-to-muscle (T/M) ratios. Percent of injected dose (%ID) in the tumor was also calculated from the reference standard, which was 1/10 of the original injection activity of ^99mTc-N4-Tyrosine.

[2] = Tissue distribution in normal rats; assay type: in vivo, Fischer 344 rats; conditions: for tissue distribution, Blood / tissue distribution, Bone and joint / tissue distribution, Brain / tissue distribution, Heart / tissue distribution, Intestine / tissue distribution, Kidney / tissue distribution, Liver / tissue distribution, Lung / tissue distribution, Muscle / tissue distribution, Pancreas / tissue distribution, Spleen / tissue distribution, Stomach / tissue distribution, Thyroid: i.v.
Procedure: Tissue distribution studies of ^99mTc-N4-Tyrosine were conducted using normal female Fischer 344 rats (150 ± 25 g, n = 9). The rats were divided into 3 groups, and each rat was injected intravenously with 25 ± 0.5 μCi of ^99mTc-N4-Tyrosine. Each group was examined at 1 of 3 time points (0.5, 2, or 4 hours after injection). At each time point, the rats were killed, and the selected tissues were excised, weighed, and measured for radioactivity by gamma counter. For each sample, radioactivity was expressed as mean percentage of the injected dose per gram of tissue wet weight (%ID/g). Counts from a 1/10 diluted sample of the original injection were used as a reference.

[3] = system: breast tumor (13762) and turpentine oil-induced inflammation; assay: Tumor and inflammation uptake comparison, planar scintigraphy; assay type: in vivo, Fischer 344 rats; conditions: tumor- and inflammation-bearing rats
Procedure: To investigate whether ^99mTc-N4-Tyrosine can differentiate tumor tissue from inflammatory tissue, a rat model bearing both a mammary tumor and tissue with turpentine oil-induced inflammation was created. Rat breast tumor cells (from cell line 13762; 10^5 cells/0.1 mL phosphate-buffered solution per rat) were injected into the right calf muscles of 3 female Fischer 344 rats. After the tumors reached 1 cm in diameter, turpentine oil (0.1 mL/rat) was injected into the left calf muscles of the rats to induce inflammation. The anesthetized rats were injected intravenously with ^99mTc-N4-Tyrosine 24 hours after the turpentine injection. Planar scintigraphic images were acquired at 30, 120, and 240 minutes after the ^99mTc-N4-Tyrosine injection, and ROIs of the tumor, inflamed tissue, and muscle were used to calculate the tumor-to-muscle ratios (T/Ms), inflammation-to-muscle ratios (I/Ms), and tumor-to-inflammation ratios (T/Is), respectively. The same animal model was used to evaluate ^18F-FDG. Micro-PET imaging of ^18F-FDG was performed using an R4 micro-PET scanner (Concorde Microsystems, Knoxville, TN, USA). Three breast tumor- and inflammation-bearing rats were injected intravenously with ^18F-FDG (500 μCi/rat), and dynamic PET scans with a spatial resolution of 2.2 mm were obtained at 30, 60, and 90 minutes after ^18F-FDG injection. PET images were reconstructed by using the ordered subset expectation maximization (OSEM) algorithm. T/M, I/M, and T/I ratios were calculated using the regional radioactivity concentrations (μCi/cm^3) that were estimated from the average pixels within ROIs drawn around the tumor, inflamed tissue, or muscle on transverse slices of the reconstructed image sets.

[4] = system: rat breast tumor cell line 13762; assay: In vitro cellular uptake; assay type: cell-based; conditions: 13762 cells
Procedure: Rat breast tumor cell line 13762 (American Type Culture Collection, Rockville, MD, USA) was used for both in vitro studies and to create the animal model for in vivo evaluation. All cells were maintained in Dulbecco's modified Eagle's medium and nutrient mixture F-12 Ham (DMEM/F12; GIBCO, Grand Island, NY) at 37°C in a humidified atmosphere containing 5% CO2.
For in vitro cellular uptake analysis, cells were plated onto 6-well tissue culture plates (2 × 10^5 cells/well) 48 hours before adding the radiotracers and incubated with ^99mTc-N4-Tyrosine (0.05 mg/well, 8 μCi/well), ^99mTc-N4 (0.025 mg/well, 8 μCi/well), or ^18F-FDG (8 μCi/well) for 0–4 hours. After incubation, cells were washed with ice-cold phosphate-buffered solution twice and detached using a treatment of 0.5 mL of trypsin for 5 minutes. Cells were then collected, and the radioactivity of the cells was measured in triplicate with a gamma counter (Cobra Quantum). Radioactivity was expressed as mean ± standard deviation (SD) percent of cellular uptake (%Uptake).

^99mTc-O-[3-(1,4,8,11-tetraazabicyclohexadecane)-propyl]-tyrosine [^99mTc-N4-Tyrosine]
tumor detection by planar scintigraphic imaging ([1]; all time points (30, 120, 240 minutes)): clearly detected | Tumor %ID (percent of injected dose in the tumor) ([1]; 30 minutes): 1.82 %ID | tumor-to-muscle (T/M) ratio ([1]; 30 minutes): 5.12 | Tumor %ID (percent of injected dose in the tumor) ([1]; 120 minutes): 1.87 %ID | tumor-to-muscle (T/M) ratio ([1]; 120 minutes): 4.88 | Tumor %ID (percent of injected dose in the tumor) ([1]; 240 minutes): 1.71 %ID | tumor-to-muscle (T/M) ratio ([1]; 240 minutes): 5.2 | tissue distribution, Blood ([2]; 30 min after injection): 0.88 %ID/g | tissue distribution, Bone and joint ([2]; 30 min after injection): 0.24 %ID/g | tissue distribution, Brain ([2]; 30 min after injection): 0.03 %ID/g | tissue distribution, Heart ([2]; 30 min after injection): 0.21 %ID/g | tissue distribution, Intestine ([2]; 30 min after injection): 0.34 %ID/g | tissue distribution, Kidney ([2]; 30 min after injection): 11.05 %ID/g | tissue distribution, Liver ([2]; 30 min after injection): 1.15 %ID/g | tissue distribution, Lung ([2]; 30 min after injection): 0.50 %ID/g | tissue distribution, Muscle ([2]; 30 min after injection): 0.07 %ID/g | tissue distribution, Pancreas ([2]; 30 min after injection): 0.17 %ID/g | tissue distribution, Spleen ([2]; 30 min after injection): 0.94 %ID/g | tissue distribution, Stomach ([2]; 30 min after injection): 0.20 %ID/g | tissue distribution, Thyroid ([2]; 30 min after injection): 0.34 %ID/g | tissue distribution, Blood ([2]; 120 min after injection): 0.20 %ID/g | tissue distribution, Bone and joint ([2]; 120 min after injection): 0.15 %ID/g | tissue distribution, Brain ([2]; 120 min after injection): 0.02 %ID/g | tissue distribution, Heart ([2]; 120 min after injection): 0.06 %ID/g | tissue distribution, Intestine ([2]; 120 min after injection): 0.13 %ID/g | tissue distribution, Kidney ([2]; 120 min after injection): 12.34 %ID/g | tissue distribution, Liver ([2]; 120 min after injection): 0.70 %ID/g | tissue distribution, Lung ([2]; 120 min after injection): 0.19 %ID/g | tissue distribution, Muscle ([2]; 120 min after injection): 0.03 %ID/g | tissue distribution, Pancreas ([2]; 120 min after injection): 0.07 %ID/g | tissue distribution, Spleen ([2]; 120 min after injection): 0.76 %ID/g | tissue distribution, Stomach ([2]; 120 min after injection): 0.08 %ID/g | tissue distribution, Thyroid ([2]; 120 min after injection): 0.10 %ID/g | tissue distribution, Blood ([2]; 240 min after injection): 0.17 %ID/g | tissue distribution, Bone and joint ([2]; 240 min after injection): 0.12 %ID/g | tissue distribution, Brain ([2]; 240 min after injection): 0.01 %ID/g | tissue distribution, Heart ([2]; 240 min after injection): 0.05 %ID/g | tissue distribution, Intestine ([2]; 240 min after injection): 0.11 %ID/g | tissue distribution, Kidney ([2]; 240 min after injection): 12.40 %ID/g | tissue distribution, Liver ([2]; 240 min after injection): 0.67 %ID/g | tissue distribution, Lung ([2]; 240 min after injection): 0.14 %ID/g | tissue distribution, Muscle ([2]; 240 min after injection): 0.02 %ID/g | tissue distribution, Pancreas ([2]; 240 min after injection): 0.05 %ID/g | tissue distribution, Spleen ([2]; 240 min after injection): 0.63 %ID/g | tissue distribution, Stomach ([2]; 240 min after injection): 0.06 %ID/g | tissue distribution, Thyroid ([2]; 240 min after injection): 0.09 %ID/g | stability in vivo ([2]; inferred from low thyroid and stomach uptake): high stability in vivo | inflammation-to-muscle (I/M) ratio ([3]; 30 min): 4.26 | tumor-to-inflammation (T/I) ratio ([3]; 30 min): 1.2 | tumor-to-muscle (T/M) ratio ([3]; 30 min): 5.12 | inflammation-to-muscle (I/M) ratio ([3]; 120 min): 3.62 | tumor-to-inflammation (T/I) ratio ([3]; 120 min): 1.14 | tumor-to-muscle (T/M) ratio ([3]; 120 min): 4.11 | inflammation-to-muscle (I/M) ratio ([3]; 240 min): 2.45 | tumor-to-inflammation (T/I) ratio ([3]; 240 min): 1.32 | tumor-to-muscle (T/M) ratio ([3]; 240 min): 3.24 | tumor-to-inflammation (T/I) ratios ([3]; all time points): greater than 1 | mean %Uptake compared with ^18F-FDG ([4]; 8 μCi/well): much higher than that of ^18F-FDG | cellular uptake kinetics (%Uptake) ([4]; incubation 15-240 minutes): increased dramatically up to 240 minutes
